compound: C[C@@H](Oc1cc(-c2cnn(C3CCNCC3)c2)cnc1N)c1c(Cl)ccc(F)c1Cl [Crizotinib] + CS(=O)(=O)CCNCc1ccc(-c2ccc3ncnc(Nc4ccc(OCc5cccc(F)c5)c(Cl)c4)c3c2)o1 [Lapatinib] (partner 2 µM); assay: relative viability (nuclei count vs DMSO), 5 days (fraction); higher = more cells survive; settings: first compound 1 µM
In short: (§1)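 Lung cancer cell lines, seeded in 1536-well plates, were treated the following day by pin tool with a single drug or with five library-drug doses (not always all listed) in √10 steps on top of a fixed anchor-drug dose. Cells were fixed and nuclei stained in one step after 5 days, and nuclei were counted. Relative viability is the nuclei count for treated wells divided by that for vehicle wells, reported as medians of duplicate plates.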

Cell Line	relative viability
NCI-H1975	0.869
NCI-H1993	0.707
NCI-H2085	0.715
NCI-H2087	1.06
NCI-H2126	0.727
NCI-H2170	0.241
NCI-H2347	0.933
NCI-H3122	0.763
PC-3 [JPC-3]	0.459
PC-14	0.304
RERF-LC-KJ	0.838

compound: C[C@@H](Oc1cc(-c2cnn(C3CCNCC3)c2)cnc1N)c1c(Cl)ccc(F)c1Cl [Crizotinib] + NC(=O)Nc1cc(-c2cccc(F)c2)sc1C(=O)N[C@H]1CCCNC1 [AZD7762] (partner 0.2 µM); assay: as above; settings: first compound 0.01 µM
In short: as §1

Cell Line	relative viability
LC-2-ad	0.779
LCLC-97TM1	0.193
LK-2	0.533
LOU-NH91	0.778
LU99A	0.276
LXF-289	1.05
NCI-H23	0.281
NCI-H460	0.592
NCI-H596	1.05
NCI-H647	0.444
NCI-H727	0.566
NCI-H838	0.975
NCI-H1355	0.678
NCI-H1395	0.381
NCI-H1437	1.03
NCI-H1651	0.438
NCI-H1666	0.78

Cell Line	relative viability
NCI-H1703	0.157
NCI-H1734	0.51
NCI-H1755	0.407
NCI-H1915	0.66
NCI-H1944	0.449
NCI-H1975	0.641
NCI-H1993	0.702
NCI-H2085	0.961
NCI-H2087	1.39
NCI-H2126	0.928
NCI-H2170	0.761
NCI-H2347	0.773
NCI-H2405	0.632
NCI-H3122	1.01
PC-3 [JPC-3]	0.687
PC-14	0.342
RERF-LC-KJ	1.02

same assay, conditions: first compound 0.03162 µM

Cell Line	relative viability
LC-2-ad	0.854
LCLC-97TM1	0.138
LK-2	0.293
LOU-NH91	0.82
LU99A	0.362
LXF-289	1.11
NCI-H23	0.323
NCI-H322M	0.575
NCI-H460	0.64
NCI-H596	1.01
NCI-H647	0.626
NCI-H727	0.568
NCI-H838	0.919
NCI-H1355	0.707
NCI-H1395	0.372
NCI-H1437	1.13
NCI-H1651	0.472

Cell Line	relative viability
NCI-H1666	0.899
NCI-H1703	0.172
NCI-H1734	0.509
NCI-H1755	0.423
NCI-H1915	0.682
NCI-H1944	0.566
NCI-H1975	0.784
NCI-H1993	0.75
NCI-H2085	1.01
NCI-H2087	1.49
NCI-H2126	1.09
NCI-H2170	0.894
NCI-H2347	0.663
NCI-H2405	0.695
NCI-H3122	1.05
PC-14	0.392
RERF-LC-KJ	0.956

same assay, conditions: first compound 0.1 µM

Cell Line	relative viability
LC-2-ad	0.846
LCLC-97TM1	0.252
LK-2	0.341
LOU-NH91	0.796
LU99A	0.34
LXF-289	1.16
NCI-H23	0.297
NCI-H322M	0.609
NCI-H460	0.665
NCI-H596	1.03
NCI-H647	0.403
NCI-H727	0.567
NCI-H838	0.969
NCI-H1355	0.867
NCI-H1395	0.429
NCI-H1437	1.09
NCI-H1651	0.409

Cell Line	relative viability
NCI-H1666	0.828
NCI-H1703	0.126
NCI-H1734	0.553
NCI-H1755	0.539
NCI-H1915	0.739
NCI-H1944	0.53
NCI-H1975	0.771
NCI-H2085	0.986
NCI-H2087	1.24
NCI-H2126	1.02
NCI-H2170	0.835
NCI-H2347	0.772
NCI-H2405	0.684
NCI-H3122	0.93
PC-3 [JPC-3]	0.907
PC-14	0.401
RERF-LC-KJ	0.956

same assay, conditions: first compound 0.3162 µM

Cell Line	relative viability
LCLC-97TM1	0.104
LK-2	0.204
LOU-NH91	0.719
LU99A	0.32
LXF-289	1
NCI-H322M	0.547
NCI-H647	0.394
NCI-H727	0.433
NCI-H838	0.9
NCI-H1355	0.675
NCI-H1395	0.43
NCI-H1437	1.13
NCI-H1651	0.483
NCI-H1666	0.825
NCI-H1703	0.116
NCI-H1755	0.411
NCI-H1915	0.694
NCI-H1944	0.446
NCI-H1975	0.684
NCI-H1993	0.379
NCI-H2085	0.737
NCI-H2087	1.24
NCI-H2126	0.903
NCI-H2170	0.852
NCI-H2347	0.582
NCI-H2405	0.763
NCI-H3122	0.962
PC-14	0.355
RERF-LC-KJ	0.946

same assay, conditions: first compound 1 µM

Cell Line	relative viability
LC-2-ad	0.853
LCLC-97TM1	0.339
LK-2	0.398
LOU-NH91	0.716
LU99A	0.407
LXF-289	1.19
NCI-H23	0.261
NCI-H322M	0.584
NCI-H460	0.607
NCI-H596	1.16
NCI-H647	0.595
NCI-H727	0.661
NCI-H838	0.974
NCI-H1355	0.769
NCI-H1395	0.397
NCI-H1437	1.09
NCI-H1651	0.463

Cell Line	relative viability
NCI-H1703	0.125
NCI-H1734	0.616
NCI-H1755	0.455
NCI-H1915	0.704
NCI-H1944	0.489
NCI-H1975	0.636
NCI-H1993	0.527
NCI-H2085	1.02
NCI-H2087	1.48
NCI-H2126	1.04
NCI-H2170	0.858
NCI-H2347	0.884
NCI-H2405	0.755
NCI-H3122	0.921
PC-3 [JPC-3]	0.772
PC-14	0.382
RERF-LC-KJ	0.994

compound: O=C(c1cc(Cc2n[nH]c(=O)c3ccccc23)ccc1F)N1CCN(C(=O)C2CC2)CC1 [Olaparib] + CC1(C)CCC(c2ccc(Cl)cc2)=C(CN2CCN(c3ccc(C(=O)NS(=O)(=O)c4ccc(N[C@H](CCN5CCOCC5)CSc5ccccc5)c(S(=O)(=O)C(F)(F)F)c4)cc3)CC2)C1 [Navitoclax] (partner 0.5 µM); assay: as above; settings: first compound 0.08 µM
In short: as §1

Cell Line	relative viability
LC-2-ad	0.529
LCLC-97TM1	0.528
LK-2	0.887
LOU-NH91	0.757
LU99A	0.775
LXF-289	1.03
NCI-H23	0.953
NCI-H322M	1.34
NCI-H460	1.18
NCI-H596	0.899
NCI-H647	1.44
NCI-H727	0.42
NCI-H838	1.12
NCI-H1355	0.959
NCI-H1395	1.27
NCI-H1437	1.12
NCI-H1651	0.97
NCI-H1666	1.17

Cell Line	relative viability
NCI-H1703	1.29
NCI-H1734	0.854
NCI-H1755	1.02
NCI-H1915	0.721
NCI-H1944	0.95
NCI-H1975	1.28
NCI-H1993	0.872
NCI-H2085	1.25
NCI-H2087	0.968
NCI-H2126	0.875
NCI-H2170	0.551
NCI-H2347	0.9
NCI-H2405	1.21
NCI-H3122	0.948
PC-3 [JPC-3]	0.784
PC-14	1.04
RERF-LC-KJ	1.04

same assay, conditions: first compound 0.253 µM

Cell Line	relative viability
LC-2-ad	0.431
LCLC-97TM1	0.259
LK-2	0.696
LOU-NH91	0.642
LU99A	0.635
LXF-289	0.9
NCI-H23	0.684
NCI-H322M	1.07
NCI-H460	0.94
NCI-H596	0.902
NCI-H647	1.1
NCI-H727	0.344
NCI-H838	1.06
NCI-H1355	0.887
NCI-H1395	0.937
NCI-H1437	1.01
NCI-H1651	0.814
NCI-H1666	0.828

Cell Line	relative viability
NCI-H1703	1.06
NCI-H1734	0.709
NCI-H1755	0.912
NCI-H1915	0.725
NCI-H1944	0.842
NCI-H1975	0.957
NCI-H1993	0.914
NCI-H2085	1.03
NCI-H2087	0.869
NCI-H2126	0.824
NCI-H2170	0.533
NCI-H2347	0.779
NCI-H2405	0.878
NCI-H3122	0.976
PC-3 [JPC-3]	0.729
PC-14	0.934
RERF-LC-KJ	0.862

same assay, conditions: first compound 2.53 µM

Cell Line	relative viability
LC-2-ad	0.365
LCLC-97TM1	0.346
LK-2	0.876
LOU-NH91	0.725
LU99A	0.547
LXF-289	1.02
NCI-H23	0.603
NCI-H322M	1.23
NCI-H460	0.815
NCI-H596	0.878
NCI-H647	1.06
NCI-H727	0.321
NCI-H838	1.03
NCI-H1355	0.949
NCI-H1395	0.776
NCI-H1437	0.952
NCI-H1651	0.654
NCI-H1666	0.796

Cell Line	relative viability
NCI-H1703	1.05
NCI-H1734	0.765
NCI-H1755	1.01
NCI-H1915	0.739
NCI-H1944	1.07
NCI-H1975	1.14
NCI-H1993	1.19
NCI-H2085	1.12
NCI-H2087	0.877
NCI-H2126	0.749
NCI-H2170	0.53
NCI-H2347	0.692
NCI-H2405	0.869
NCI-H3122	0.964
PC-3 [JPC-3]	0.743
PC-14	0.867
RERF-LC-KJ	0.998

same assay, conditions: first compound 8 µM

Cell Line	relative viability
LC-2-ad	0.316
LCLC-97TM1	0.405
LK-2	0.951
LOU-NH91	0.618
LU99A	0.289
LXF-289	0.96
NCI-H23	0.387
NCI-H322M	1.01
NCI-H460	0.424
NCI-H596	0.519
NCI-H647	0.745
NCI-H727	0.204
NCI-H838	1.03
NCI-H1355	0.881
NCI-H1395	0.573
NCI-H1437	0.761
NCI-H1651	0.257
NCI-H1666	0.853

Cell Line	relative viability
NCI-H1703	1.43
NCI-H1734	0.531
NCI-H1755	0.876
NCI-H1915	0.486
NCI-H1944	0.64
NCI-H1975	1.02
NCI-H1993	1.27
NCI-H2085	0.929
NCI-H2087	0.728
NCI-H2126	0.853
NCI-H2170	0.448
NCI-H2347	0.562
NCI-H2405	0.677
NCI-H3122	0.86
PC-3 [JPC-3]	0.76
PC-14	0.722
RERF-LC-KJ	1.09

From the supplement of paper PMC10307832
